Data from PMC9948168, “Vanillin-Based Indolin-2-one Derivative Bearing a Pyridyl Moiety as a Promising Anti-Breast Cancer Agent via Anti-Estrogenic Activity” (ACS Omega, 2023).
Like-named read-outs stand apart in the source and are kept apart here.

Legend:
[1] = tested on: MCF-7 breast cancer cells; parameters: method as in doi:10.1016/j.bionut.2013.04.001; settings: cited from earlier work
[2] = iCELLigence real-time cell analysis; assay type: cell-based, human; settings: human, MCF-12A, 20 μM, relative to control, read-out: cell viability (% ± SEM)
Description: (§1) Therefore, compound 6j was applied in serial doses (2, 5, 10, 20, 50, and 100 μM) to MCF-7 cells and parallel to MCF-12A cells to determine the selectivity and safety. The treatments were performed 24 h after seeding the cells on system-specific biosensor-based plates. A total of 120 h of analyses were monitored, with cell viability measurements taken every 15 min. […] In addition, the viability percentage values for each dose in these periods were calculated and are summarized in Table 3 for MCF-7 and Table 4 for MCF-12A. […] In these treatments, cells were not killed dramatically after adding the highest two doses of 6j (100 and 50 μM); instead, they entered the stationary phase.
(§2) MCF-7 (Cat. no. HTB-22) (human estrogen receptor-positive breast cancer) and MCF-12A (Cat. no. CRL-10782) (human non-tumorigenic mammary epithelial) cell lines were obtained from the American Type Culture Collection (ATCC, Rockville, Maryland, USA). MCF-7 cells were maintained in Dulbecco’s modified Eagle’s medium (DMEM) (Biological Industries, Haemek, Israel) supplemented with 10% heat-inactivated fetal bovine serum (FBS) (Biowest, Nuaillé, France), 2 mM L-glutamine (Biological Industries, Haemek, Israel), 100 U/mL penicillin and 100 μg/mL streptomycin (Gibco, Waltham, MA, USA), and 2.5 μg/mL plasmocin (Invivogen, Toulouse, France) at 37 °C in a 5% CO2 humidified incubator. MCF-12A cells were cultured in a DMEM/F-12 Nutrient Mixture (Ham) (DMEM/F12 1:1 with HEPES and L-glutamine) (Gibco, Waltham, MA, USA) with 10% heat-inactivated FBS, 100 U/mL penicillin, 100 μg/mL streptomycin, and 10 μg/mL insulin (Humulin R, Lilly, Indianapolis, USA), 20 ng/mL epidermal growth factor (Abcam, Cambridge, UK), […] hydrocortisone (Dekort, Deva Ilac, Istanbul, Turkey), and 2.5 μg/mL plasmocin in a humidified atmosphere of 5% CO2 at 37 °C. The cells were routinely cultured in cell culture flasks and checked regularly under an inverted microscope. Cells reaching 80% confluency were passaged by treatment with 0.25% trypsin–EDTA. Total cell numbers were counted by the trypan blue dye exclusion method using a hemocytometer prior to the experiments.
(§3) The iCELLigence real-time cell analysis system was used to conduct a real-time and label-free examination of the activities of compound 6j on cells as we previously described.[62] In brief, following a background measurement with 200 μL of complete medium on iCELLigence E-plate L8, 100 μL of MCF-7 or MCF-12A cells was seeded at a density of 5.0 × 10^3 per well. During the 120 h monitoring, the system took impedance measurements via biosensors every 15 min. At the 24th h of incubation, the cells were treated with increasing concentrations of the 6j compound (2, 5, 10, 20, 50, and 100 μM) in duplicate. For cell culture experiments, compound 6j was dissolved in DMSO (Sigma, St. Louis, USA) at a stock concentration of 20 mM. For treatments, dilutions were prepared from 20 mM stock with a cell growth medium, with a final DMSO concentration of 0.1%. The medium containing 0.1% DMSO was also used as a negative control. […] Data were recorded by the iCELLigence software for 120 h and analyzed at the end of the study.

MCF-7 cells = experiment: iCELLigence real-time cell analysis; assay type: cell-based, human; settings: Homo sapiens, MCF7, MCF-7, 20 μM, relative to control, read-out: cell viability (% ± SEM)
Description: as §1, §2, §3

[3] = tested on: estrogen-induced uterotrophic effect; experiment: In vivo anti-estrogenic (anti-uterotrophic) activity, immature rat model; parameters: species or system Wistar immature female rats; settings: oral, 20 mg/kg (tamoxifen 20 mg/kg/day, 6j equimolar per method), 3 days, with estradiol 10 μg/kg/day s.c.; immature female rats
Description: The anti-estrogenic activity was assessed as previously described.[65]−[67] All experiments were carried out in accordance with the recommendations of the […] Animal Care and Use Committee. The experimental protocol was approved by “The Commission on the Ethics of Scientific Research”, Faculty of Pharmacy, Minia University (no. ES30/2021). 20-day-old Wistar immature female rats (40–50 g) from the animal care facility of Nahda University at Beni Suef (NUB) were allowed to acclimatize to lab conditions for 3 days before the experiment with free access to food and water. Estradiol was diluted in olive oil and subcutaneously injected on the loose dorsal skin in a dose of 10 μg/kg/day. […] Both compounds were dissolved in a mixture of DMSO, Tween 20, and saline (1:1:8, respectively) and orally administered. The rats were randomly assigned to […] (n = 6) subjected to daily s.c. injections of estradiol, except for the control group. […] On the 4th day, all rats were sacrificed by cervical dislocation, and the uteri were dissected free of fat and weighed immediately. […] The results were expressed as percent inhibition from the formula [drawing 1] […] It is noteworthy that doses of the tested compounds are calculated on a molar basis. […] Values are expressed as mean ± SEM.

Row | Compound | IC50 [1] [µM] | viability at 72 h, 20 µM ([2]; MCF-12A cells (non-tumorigenic mammary epithelial), 72 h) [%] | viability at 96 h, 20 µM ([2]; MCF-12A cells (non-tumorigenic mammary epithelial), 96 h) [%] | viability at 24 h, 20 µM ([2]; MCF-12A cells, 24 h) [%] | viability at 48 h, 20 µM ([2]; MCF-12A cells, 48 h) [%] | viability at 20 µM (MCF-7 cells; 24 h) [%] | viability at 20 µM (MCF-7 cells; 48 h) [%] | viability at 20 µM (MCF-7 cells; 72 h) [%] | viability at 20 µM (MCF-7 cells; 96 h) [%] | anti-uterotrophic activity (inhibition of estrogen-induced uterine weight) [3] [%]
1 | COc1ccc(C(=O)/C=C2/C(=O)Nc3ccc(Cl)cc32)cc1OC [Compound III] | 3.59 |  |  |  |  |  |  |  |  | 
2 | CC/C(=C(\c1ccccc1)c1ccc(OCCN(C)C)cc1)c1ccccc1 [tamoxifen, reference compound] |  | 84 ± 0.01 | 84 ± 0.01 | 84 ± 0.01 | 84 ± 0.01 | 86.84 ± 0.02 | 86.84 ± 0.02 | 85.59 ± 0.04 | 80.31 ± 0.07 | 50
